Experimental findings from patent US20150031890A1, “PHARMACEUTICAL COMPOSITION COMPRISING BICYCLIC PYRIDINOL DERIVATIVES FOR PREVENTING OR TREATING DISEASES CAUSED BY ANGIOGENESIS” (Research Cooperation Foundation of Yeungnam University, priority 2011, published 2015) are described below.

In data set [1] the test system is HUVEC cells. Nature of the data set: ROS scavenging effect in VEGF-induced HUVEC cells (DCF-DA). The data set is classed as cell-based, human. Particulars: 3 hours pre-treatment, VEGF 15 minutes, compared with the VEGF (FIG. 5). On the procedure:
(§1) In order to measure an ROS scavenging effect in HUVEC cells induced by a VEGF, 2′,7′-dichlorofluorescein diacetate (DCF-DA) was used. […] The HUVEC cells were injected into 8-well plates coated with 0.2% gelatin in a density of 1×10^5 cells/well and then cultured for 24 hours. A pre-treatment was carried out to the compound 12 for 3 hours and induced by the VEGF for 15 minutes and washed with PBS (pH 7.4) three times. Then, 10 μM DCF-DA was put into an EBM-2 and used to treat in darkroom for 30 minutes, and then washed again with the PBS three times. A fluorescence degree of the cells was measured using a fluorescence microscope. FIG. 5 provides photomicrographs taken at a magnification of 400 times of cells in order to check an ROS scavenging effect of the compound 12 of the present invention. […] FIG. 6 and FIG. 7 illustrate an observation result of the ROS scavenging effect of the compound 12 by treating the adult retinal pigment epithelium (ARPE)-19 cell line with 4-hydroxynonenal (4-HNE) or angiotensin II, which is a risk factor of macular degeneration. […] The 4-hydroxynonenal (4-HNE) or angiotensin II, which is a risk factor of macular degeneration caused cell damage by generation of ROS in ARPE cell and caused damage of a Bruch's membrane and angiogenesis, resulting in macular degeneration and loss of eyesight.

The test system of data set [2] is HUVEC cells. As to the kind of experiment: VEGF-induced growth inhibitory effect in HUVEC cells (MTT). The data set is classed as cell-based, human. To be noted: 24 hours, MTT (FIG. 3). On the procedure:
HUVEC cells were cultured in a flask coated with 0.2% gelatin. Then, the HUVEC cells were cultured in an endothelial cell basal medium-2 (EBM-2, Clonetics, San Diego, Calif.). This EBM-2 contained fetal bovine serum (FBS), hydrocortisone, a human basic fibroblast growth factor (hFGF-B), a vascular endothelial growth factor (VEGF), a human recombinant insulin-like growth factor (R3-IGF-1), ascorbic acid, a human epidermal growth factor (hEGF), GA-1000, and heparin. The HUVEC cells were cultured for 4 to 5 days and injected into a 24-well plate in a density of 5×10^4 cells/well, and the media of the respective wells were set at 1 ml. In order to test the effect of the compound 12 in endothelial cells induced by the VEGF, the HUVEC cells were treated with a mixture of the VEGF and the compound 12 and cultured for 24 hours, and, then, 100 μl of MTT 3-(4,5-dimethylthiazol-2-yl)-2,5-diphenyl tetrazolium bromide; 5 g MTT/l in H2O) was added thereto and further cultured for 4 hours. Then, 200 μl of dimethylsulfoxide (DMSO) was added to the respective wells containing the corresponding cells and mixed with a pipette to dissolve the reduced MTT crystals. Relative cell survival rates were measured by scanning with a microplate reader (Molecular Devices, Menlo Park, Calif.) having 540 nm filter.

Data set [3] has as its system adult retinal pigment epithelium (ARPE)-19 cell line. As to the kind of experiment: ROS scavenging effect in ARPE-19 cell line (4-HNE or angiotensin II). In kind it is cell-based, human. The protocol:
as §1

The subject of a further data set is A549 lung cancer cells. Nature of the data set: angiogenesis caused by tumorigenesis and tumor growth, A549 cells inoculated to CAM. The data set is classed as in vivo, chicken. Particulars: A549 cells 1.5×10^6 cells/CAM, 5 days after inoculation (FIG. 8). The protocol:
FIG. 8 illustrates an observation result of angiogenesis caused by tumorigenesis by inoculating A549 lung cancer cells to a CAM and a tumor growth inhibitory effect. Fertilized chicken eggs were cultured, and on the ninth day, a window was made in the same manner, and instead of a disc, cancer cells were mixed with matrigel at a ratio of 1:1 and treated with the compound 12 and inoculated in a density of 1.5×10^6 cells/CAM. After 5 days from the inoculation, a CAM portion, in which tumor was formed, was separated and washed with PBS to take images using a stereomicroscope (Stemi SV6 stereomicroscope, Carl Zeiss, Germany) and Image-Pro Plus software (Media Cybernetics; Silver Spring, Md., USA). Then, the number of branches was counted and the result data were analyzed.

Data set [4] can be described thus: single oral dose toxicity experiment in mice. The data set is classed as in vivo. To be noted: single oral dose 0.5, 1 and 2 g/kg, 7 days. On the procedure: The compound 12 was suspended in a 0.5% methyl cellulose solution and orally administered to male Balb/c mice with a single dose of 0.5 g/kg, 1 g/kg, and 2 g/kg. Then, the survival rate and weights of the mice were checked for 7 days.
After the administration, whether the animal was dead or not, clinical symptoms, changes in weight were observed, and a hematological test and a blood chemical test were carried out.

Data set [5] relates to neovascularization induced by VEGF in chicken chorioallantoic membrane (CAM). Nature of the data set: chorioallantoic membrane (CAM) assay, VEGF-induced angiogenesis. In kind it is in vivo. On the procedure: To examine angiogenesis inhibitory effects in vivo, a chorioallantoic membrane (CAM) assay was carried out (Nguyen M et al., Microvascular Res., 47, pp 31-40, 1994).
Fertilized chicken eggs were cultured keeping the temperature at 37° C. and the relative humidity at 55%. On the tenth day, the first small hole was made in the region of air sac and the second hole was dug in the flat region of egg, where a window was to be made, using a hypodermic needle (Greencross Medical Science, Korea).
Each egg was deflated through the first hole in the region of the air sac so that the chorioallantoic membrane (CAM) was split from the egg shell. Subsequently, a window was made by cutting this region using a grinding wheel (Multipro 395JA, Dremel, Mexico).
Then, a whatman filter disc #1 (Whatman Inc. USA) was treated with 3 mg/ml of cortisone acetate and dried. The filter disc was drenched with a vascular endothelial growth factor (VEGF) in a concentration of 20 ng/CAM.
The filter disc was put on the vessels through the previously made window, and a compound 12 of Example was dissolved in dimethylsulfoxide (DMSO) and diluted with phosphate buffered saline (PBS) to treat by concentrations.
After 3 days from the drug treatment, the CAMs, on which the filter disc was placed, were separated and washed with PBS to take images using a stereomicroscope (Stemi SV6 stereomicroscope, Carl Zeiss, Germany) and Image-Pro Plus software (Media Cybernetics; Silver Spring, Md., USA). Then, the number of branches was counted and the result data were analyzed.

Data set [6] relates to HUVEC cells. Nature of the data set: chemostatic migration / infiltration inhibitory effect in HUVEC cells. In kind it is cell-based, human. Particulars: 1, 3, 10 μM, 24 hours, matrigel/collagen coated filter (FIG. 4). On the procedure: In order to examine a chemostatic migration inhibitory effect of the compound of the present invention, the following in vitro experiment was carried out using HUVEC cells (Mi-Sung Kim et al., Cancer Research, 63, 5454-5461, 2003; Sang-Oh Yoon et al., The Journal of Biological Chemistry, 276, 20085-20092, 2001; Sonia Zorzet et al., The Journal of Pharmacology and Experimental Therapeutics, 295, 927-933, 2000). A culture plate applied hereto was a 24-well plate (Corning Costar, Cambridge, Mass.) including a polycarbonate filter having a plurality of pores of […] in size. The bottom side of the polycarbonate filter was coated with 20 l of type I collagen in a concentration of 0.5 mg/ml, and the top side thereof was coated with 20 l of matrigel (BD Bioscience, Bedford, Mass.) in a concentration of 1.5 mg/ml. Here, the lower region of the polycarbonate filter was filled with a medium including 2% FBS, and the HUVEC cells were inoculated into the upper region of the polycarbonate filter. In this case, the compound 12 was dissolved in dimethyl sulfoxide (DMSO) and diluted with phosphate buffered saline (PBS) by concentrations (1, 3, 10 μM). The HUVEC cells inoculated as such were cultured at 37° C. for 24 hours. Subsequently, the cells infiltrating the bottom side of the polycarbonate filter were fixed with methanol and stained with hematoxylin and eosin. […]

[7] abbreviates: VEGF 20 ng/CAM + 3 ng/CAM, 0.7 μM.
[8] abbreviates: VEGF 20 ng/CAM + 100 ng/CAM, 23 μM.
Setting [9] is: VEGF 20 ng/CAM + 1 μg/CAM, 3 days after treatment.

The structures appear in SMILES notation.

One may read the inhibition as the percentage by which the read-out fell short of the control. A word on the IC50: it is the concentration needed to halve the response being measured. Higher therefore signals lower potency. As for `Cc1nc2c(c(C)c1O)CC(C)(CCC[C@H](C)CCC[C@H](C)CCCC(C)C)N2C` (stereo partly shown) [Compound 12], in the data set with HUVEC cells [1], the “fluorescence degree of the cells (ROS, DCF-DA)” value is reported as “remarkably decreased as compared with the VEGF”. In addition, the VEGF-induced cell growth result with HUVEC cells [2] is given as “reduced VEGF-induced cell growth in a concentration-dependent manner”. The “fluorescence degree of the cells (ROS)” value in data set [3] (ARPE-19 treated with 4-hydroxynonenal (4-HNE), compared with control group (FIG. 7)) is “remarkably decreased as compared with the control group”; in data set [3] (ARPE-19 treated with angiotensin II, compared with control group (FIG. 6)), “remarkably decreased as compared with the control group”. In addition, in the data set on A549 lung cancer cells, the “angiogenesis caused by tumorigenesis” value is listed as “inhibited angiogenesis caused by tumorigenesis”. Besides, the tumor growth result in the data set with A549 lung cancer cells is “inhibited tumor growth in a significantly low concentration as compared with α-tocopherol”. Also, in data set [4], the clinical symptoms entry is listed as “any especially remarkable clinical symptoms were not observed”. Further, in data set [5] (CAM, VEGF 20 ng/CAM), the “increase in neovascularization induced by the VEGF” value is “decreased in a concentration-dependent manner”. Further, in data set [5] (Gallus gallus, VEGF 20 ng/CAM + 0.004 ng/CAM, 1 nM, read-out: Inhibition rate (%)), the inhibition at 0.001 µM came out at 64 ± 12.5%. In data set [5] (Gallus gallus, VEGF 20 ng/CAM + 0.04 ng/CAM, 10 nM, read-out: Inhibition rate (%)), the inhibition at 0.01 µM worked out at 71.4 ± 6.4%. This compound showed an IC50 in data set [5] (Gallus gallus, VEGF-induced angiogenesis, treated by concentrations (FIG. 2)) of 0.7 nM. Besides, the “Number of branches/Main vessel” value in data set [5] (VEGF 20 ng/CAM + 0.004 ng/CAM, 1 nM) is on record as 28 ± 4.7; in data set [5] (VEGF 20 ng/CAM + 0.04 ng/CAM, 10 nM), 25.2 ± 2.4. Moreover, the “infiltration of the HUVEC cells” value in the data set with HUVEC cells [6] is “reduced infiltration of the HUVEC cells in a concentration-dependent manner”.

Regarding `Cc1c(C)c2c(c(C)c1O)CC[C@@](C)(CCC[C@H](C)CCC[C@H](C)CCCC(C)C)O2` [α-tocopherol], in data set [5] (setting [7]), the “Inhibition rate (%)” value was determined as 45.1 ± 9.3% and the “Number of branches/Main vessel” value was found to be 32.3 ± 3.5. In data set [5] (setting [8]), the “Inhibition rate (%)” value is 64.4 ± 14.2% and the “Number of branches/Main vessel” value is recorded as 24.3 ± 2.7.

Turning to `CNC(=O)[C@H](Cc1ccccc1)NC(=O)[C@H](CC(C)C)[C@H](CSc1cccs1)C(=O)NO` [Batimastat], in data set [5] (setting [9]), the “Inhibition rate (%)” value worked out at 78.4 ± 7.4% and the “Number of branches/Main vessel” value is listed as 19.9 ± 2.87.

For the compound `CN(C)c1ccc(/C=C2\C(=O)Nc3ccccc32)cc1` [SU4312], in data set [5] (setting [9]), the “Inhibition rate (%)” value came out at 74.6 ± 12.1% and the “Number of branches/Main vessel” value is 24 ± 4.6.
